Source: ChEMBL document CHEMBL4417631, “Oral peptide inhibitors of interleukin-23 receptor and their use to treat inflammatory bowel diseases” (2017)
Where a SMILES comes first, the peptide text is derived from it.

Molecular target: T1, Interleukin-23 receptor (Homo sapiens, UniProt Q5VWK5)
T1 sequence (Q5VWK5 whole entry): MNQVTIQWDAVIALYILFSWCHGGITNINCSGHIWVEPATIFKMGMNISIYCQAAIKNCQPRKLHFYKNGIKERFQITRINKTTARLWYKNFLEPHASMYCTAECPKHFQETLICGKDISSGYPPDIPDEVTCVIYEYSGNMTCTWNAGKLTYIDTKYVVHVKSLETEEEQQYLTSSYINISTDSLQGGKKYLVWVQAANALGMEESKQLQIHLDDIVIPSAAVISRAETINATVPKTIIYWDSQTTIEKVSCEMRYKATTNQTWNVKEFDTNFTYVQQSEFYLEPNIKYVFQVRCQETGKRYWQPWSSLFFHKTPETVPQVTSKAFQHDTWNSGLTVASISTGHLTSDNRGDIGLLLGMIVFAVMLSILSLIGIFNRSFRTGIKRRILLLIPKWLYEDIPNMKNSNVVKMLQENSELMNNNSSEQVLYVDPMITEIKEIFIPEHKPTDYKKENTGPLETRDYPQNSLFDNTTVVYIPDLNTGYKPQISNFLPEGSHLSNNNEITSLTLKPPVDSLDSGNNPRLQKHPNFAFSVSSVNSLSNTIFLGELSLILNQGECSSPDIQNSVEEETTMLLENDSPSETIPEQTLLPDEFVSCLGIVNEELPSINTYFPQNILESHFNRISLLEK
Assay: Inhibition of interleukin-23 binding to human interleukin-23 receptor incubated for 2 hrs by competitive binding ELISA

| IC50 | Compound |
| --- | --- |
| < 500 nM | CC(=O)N[C@@H](CS)C(=O)N[C@@H](CCC(N)=O)C(=O)N[C@H](C(=O)N[C@@H](Cc1c[nH]c2ccccc12)C(=O)N[C@@H](CCC(N)=O)C(=O)N[C@@H](CS)C(=O)N[C@@H](Cc1ccc(O)cc1)C(=O)N[C@@H](Cc1c[nH]c2ccccc12)C(=O)N[C@@H](CCCNC(=N)N)C(=O)N[C@@H](CCCN)C(=O)N[C@@H](CC(N)=O)C(=O)NCC(=O)NCCOCC(=O)N[C@H](CCCCN)C(N)=O)[C@@H](C)O |
| > 30000 nM | CC(=O)N[C@@H](CS)C(=O)N[C@@H](CCC(N)=O)C(=O)N[C@H](C(=O)N[C@@H](Cc1c[nH]c2ccccc12)C(=O)N[C@@H](CCC(N)=O)C(=O)N[C@@H](CS)C(=O)N(C)[C@@H](Cc1ccc(O)cc1)C(=O)N[C@@H](Cc1c[nH]c2ccccc12)C(=O)N[C@@H](CCC(C)C)C(=O)N[C@@H](CCC(=O)O)C(=O)N[C@@H](CC(N)=O)C(=O)NCC(N)=O)[C@@H](C)O |
| 30000 nM | CCCCCCCCCCCCCCCC(=O)NCCCC[C@H](NC(=O)[C@H](Cc1c[nH]c2ccccc12)NC(=O)[C@@H](NC(=O)[C@H](CCC(N)=O)NC(=O)[C@H](CS)NC(C)=O)[C@@H](C)O)C(=O)N[C@@H](CS)C(=O)N[C@@H](Cc1ccc(O)cc1)C(=O)N[C@@H](Cc1c[nH]c2ccccc12)C(=O)N[C@@H](CC(C)C)C(=O)N[C@@H](CCC(=O)O)C(=O)N[C@@H](CC(N)=O)C(=O)NCC(N)=O |
| < 500 nM | CC(=O)N[C@@H](CS)C(=O)N[C@@H](CCC(N)=O)C(=O)N[C@H](C(=O)N[C@@H](Cc1c[nH]c2ccccc12)C(=O)N[C@@H](CCC(N)=O)C(=O)N[C@@H](CS)C(=O)N[C@@H](Cc1ccc(O)cc1)C(=O)N[C@@H](Cc1c[nH]c2ccccc12)C(=O)N[C@@H](CC(C)C)C(=O)N[C@@H](CCC(=O)O)C(=O)N[C@@H](CC(N)=O)C(=O)NCC(N)=O)[C@@H](C)O |
| < 500 nM | CC(=O)N[C@@H](CS)C(=O)N[C@@H](C)C(=O)N[C@@H](CC(=O)O)C(=O)N[C@@H](Cc1c[nH]c2ccccc12)C(=O)N[C@H](C(=O)N[C@@H](CS)C(=O)N[C@@H](Cc1ccc(O)cc1)C(=O)N[C@@H](Cc1c[nH]c2ccccc12)C(=O)N[C@@H](Cc1cnc[nH]1)C(=O)N[C@H](C(=O)N[C@@H](Cc1ccccc1)C(=O)NCC(=O)O)[C@@H](C)O)C(C)C |
| > 1000 nM | CC(=O)N[C@@H](CS)C(=O)N[C@@H](CCC(N)=O)C(=O)N[C@H](C(=O)N[C@@H](Cc1c[nH]c2ccccc12)C(=O)N[C@@H](CCC(N)=O)C(=O)N[C@@H](CS)C(=O)N[C@@H](Cc1ccc(O)cc1)C(=O)N[C@@H](Cc1c[nH]c2ccccc12)C(=O)N(C)[C@@H](CCC(=O)O)C(=O)N[C@@H](CC(N)=O)C(=O)NCC(=O)NCCOCC(=O)N[C@H](CCCCN)C(=O)O)[C@@H](C)O |

Second part, the molecule before the results:

| Compound | IC50 |
| --- | --- |
| CC(=O)N[C@@H](CS)C(=O)N[C@@H](C)C(=O)N[C@@H](CC(=O)O)C(=O)N[C@@H](Cc1c[nH]c2ccccc12)C(=O)N[C@H](C(=O)N[C@@H](CS)C(=O)N[C@@H](Cc1ccc(O)cc1)C(=O)N[C@@H](Cc1c[nH]c2ccccc12)C(=O)N[C@@H](Cc1cnc[nH]1)C(=O)N[C@@H](Cc1ccccc1)C(=O)N[C@@H](Cc1cnc[nH]1)C(=O)N[C@@H](CCC(N)=O)C(=O)N[C@@H](CC(C)C)C(=O)N[C@@H](CCCNC(=N)N)C(=O)N[C@@H](CC(=O)O)C(=O)N[C@@H](C)C(N)=O)C(C)C (Ac-CADWVCYWHFHQLRDA-NH2) | 500 to 1000 nM |
| CC(=O)NC1C/C=C\CCCC(C(=O)N[C@@H](Cc2ccc(O)cc2)C(=O)N[C@@H](Cc2c[nH]c3ccccc23)C(=O)N[C@@H](CCCNC(=N)N)C(=O)N[C@@H](CCCCN)C(=O)N[C@@H](Cc2ccccc2)C(=O)NCC(=O)NCCOCC(=O)N[C@H](CCCCN)C(N)=O)NC(=O)[C@H](CCC(N)=O)NC(=O)[C@H](Cc2c[nH]c3ccccc23)NC(=O)[C@H]([C@@H](C)O)NC(=O)[C@H](CCCNC(=N)N)NC1=O (some centres undefined) | 1000 to 10000 nM |
| CC(=O)NCCCC[C@H](NC(=O)[C@](C)(CCCCN)NC(=O)[C@H](Cc1ccc2ccccc2c1)NC(=O)[C@H](Cc1cc(F)cc(F)c1)NC(=O)[C@@H](NC(=O)[C@H](CCC(N)=O)NC(=O)[C@H](Cc1c[nH]c2ccccc12)NC(=O)[C@@H](NC(=O)[C@H](CCC(N)=O)NC(=O)[C@@H](NC(C)=O)C(C)(C)S)[C@@H](C)O)C(C)(C)S)C(=O)N[C@@H](CC(N)=O)C(=O)NCC(N)=O | 100 to 1000 nM |
| COc1ccc(C[C@H](NC(=O)[C@@H](NC(=O)[C@H](CCC(N)=O)NC(=O)[C@H](Cc2c[nH]c3ccccc23)NC(=O)[C@@H](NC(=O)[C@H](CCC(N)=O)NC(=O)[C@@H](NC(C)=O)C(C)(C)S)[C@@H](C)O)C(C)(C)S)C(=O)N[C@@H](Cc2ccc3ccccc3c2)C(=O)N[C@@](C)(CCCCN)C(=O)N[C@@H](CCCCNC(CC(C)C)=C2C(=O)CC(C)(C)CC2=O)C(=O)N[C@@H](CC(N)=O)C(=O)NCC(N)=O)cc1 | 100 to 1000 nM |
| CC(=O)N[C@@H](CS)C(=O)N[C@@H](CCCNC(=N)N)C(=O)N[C@@H](CC(=O)O)C(=O)N[C@@H](Cc1c[nH]c2ccccc12)C(=O)N[C@@H](CCC(N)=O)C(=O)N[C@@H](CS)C(=O)N[C@@H](Cc1ccc(O)cc1)C(=O)N[C@@H](Cc1c[nH]c2ccccc12)C(=O)N[C@H](CCCNC(=N)N)C(=O)N[C@@H](CCCCN)C(=O)N[C@@H](Cc1ccccc1)C(=O)NCC(=O)NCCOCCC(=O)N[C@H](CCCCN)C(N)=O | > 1000 nM |
| CC(=O)N[C@@H](CS)C(=O)N[C@@H](CCCCNC(=O)COCC(=O)NCCCC[C@H](NC(=O)[C@H](CS)NC(C)=O)C(=O)N[C@@H](CC(=O)O)C(=O)N[C@@H](Cc1c[nH]c2ccccc12)C(=O)N[C@H](C(=O)N[C@@H](CS)C(=O)N[C@@H](Cc1ccc(O)cc1)C(=O)N[C@@H](Cc1c[nH]c2ccccc12)C(=O)N[C@@H](Cc1cnc[nH]1)C(=O)N[C@H](C(=O)N[C@@H](Cc1ccccc1)C(=O)NCC(=O)O)[C@@H](C)O)C(C)C)C(=O)N[C@@H](CC(=O)O)C(=O)N[C@@H](Cc1c[nH]c2ccccc12)C(=O)N[C@H](C(=O)N[C@@H](CS)C(=O)N[C@@H](Cc1ccc(O)cc1)C(=O)N[C@@H](Cc1c[nH]c2ccccc12)C(=O)N[C@@H](Cc1cnc[nH]1)C(=O)N[C@H](C(=O)N[C@@H](Cc1ccccc1)C(=O)NCC(=O)O)[C@@H](C)O)C(C)C | > 10000 nM |
| N=C(N)NCCC[C@H](NC(=O)[C@H](Cc1c[nH]c2ccccc12)NC(=O)[C@H](Cc1ccc(O)cc1)NC(=O)[C@@H]1CSCCC(=O)N[C@@H](CCC(N)=O)C(=O)N[C@@H](CC(=O)O)C(=O)N[C@@H](Cc2c[nH]c3ccccc23)C(=O)N[C@@H](CCC(N)=O)C(=O)N1)C(=O)N[C@@H](CCC(=O)O)C(=O)N[C@@H](CC(N)=O)C(=O)NCC(=O)NCCOCC(=O)N[C@H](CCCCN)C(N)=O | 30000 nM |
| CC(=O)NC1CC/C=C\CCCC(C(=O)N[C@@H](Cc2ccc(O)cc2)C(=O)N[C@@H](Cc2c[nH]c3ccccc23)C(=O)N[C@@H](CCCNC(=N)N)C(=O)N[C@@H](CCCCN)C(=O)N[C@@H](Cc2ccccc2)C(=O)NCC(=O)NCCOCC(=O)N[C@H](CCCCN)C(N)=O)NC(=O)[C@H](CCC(N)=O)NC(=O)[C@H](Cc2c[nH]c3ccccc23)NC(=O)[C@H]([C@@H](C)O)NC(=O)[C@H](CCCNC(=N)N)NC1=O (some centres undefined) | 1000 to 10000 nM |
| CC(=O)N[C@@H](CS)C(=O)N[C@@H](C)C(=O)N[C@@H](CC(=O)O)C(=O)N[C@@H](Cc1c[nH]c2ccccc12)C(=O)N[C@H](C(=O)N[C@@H](CS)C(=O)N[C@@H](Cc1ccc(O)cc1)C(=O)N[C@@H](Cc1cccc2ccccc12)C(=O)N[C@@H](Cc1cnc[nH]1)C(=O)NCCC(=O)N[C@@H](Cc1ccccc1)C(=O)NCC(N)=O)C(C)C | > 1000 nM |
| CC(=O)NCC(=O)N[C@@H](CC(=O)O)C(=O)N[C@@H](Cc1cnc[nH]1)C(=O)N[C@@H](CCCCN)C(=O)N[C@@H](CS)C(=O)N[C@@H](CO)C(=O)N[C@@H](CO)C(=O)N[C@@H](Cc1c[nH]c2ccccc12)C(=O)N[C@@H](CCC(=O)O)C(=O)N[C@@H](CS)C(=O)N[C@@H](Cc1ccc(O)cc1)C(=O)N[C@@H](Cc1c[nH]c2ccccc12)C(=O)N[C@@H](Cc1cnc[nH]1)C(=O)N[C@H](C(=O)N[C@@H](Cc1ccccc1)C(=O)NCC(N)=O)[C@@H](C)O (Ac-GDHKCSSWECYWHTFG-NH2) | 500 to 1000 nM |
| CC(=O)N[C@@H](CS)C(=O)N[C@@H](C)C(=O)N[C@@H](CC(=O)O)C(=O)N[C@@H](Cc1c[nH]c2ccccc12)C(=O)N[C@H](C(=O)N[C@@H](CS)C(=O)N[C@@H](Cc1ccc(O)cc1)C(=O)N[C@@H](Cc1c[nH]c2ccccc12)C(=O)N[C@@H](Cc1cnc[nH]1)C(=O)N[C@@H](CCCNC(=N)N)C(=O)N[C@@H](CO)C(=O)N[C@H](C(=O)NCC(=O)NCC(=O)N[C@@H](CCC(N)=O)C(=O)N[C@@H](Cc1cnc[nH]1)C(N)=O)[C@@H](C)O)C(C)C (Ac-CADWVCYWHRSTGGQH-NH2) | 500 to 1000 nM |
| COc1ccc([C@@H]2NC(=O)[C@H]([C@@H](C)O)NC(=O)[C@H](CCC(N)=O)NC(=O)[C@@H](NC(C)=O)CCSC[C@@H](C(=O)N[C@@H](Cc3ccc(OCCN)cc3)C(=O)N[C@@H](Cc3ccc4ccccc4c3)C(=O)N[C@@](C)(CCCCN)C(=O)N[C@@H](CCC(=O)O)C(=O)N[C@@H](CC(N)=O)C(=O)NCC(N)=O)NC(=O)[C@H](CCC(N)=O)NC2=O)cc1 | > 3000 nM |
| CC(=O)N[C@H](CCCCN)C(=O)N[C@@H](CS)C(=O)N[C@@H](CCCNC(=N)N)C(=O)N[C@@H](CC(=O)O)C(=O)N[C@@H](Cc1c[nH]c2ccccc12)C(=O)N[C@@H](CCC(N)=O)C(=O)N[C@@H](CS)C(=O)N[C@@H](Cc1ccc(O)cc1)C(=O)N[C@@H](Cc1cccc2ccccc12)C(=O)N[C@@H](Cc1cnc[nH]1)C(=O)N[C@H](C(=O)N[C@@H](Cc1cnc[nH]1)C(=O)N(C)CC(=O)NCCOCCC(=O)N[C@H](CCCNC(=N)N)C(N)=O)[C@@H](C)O | 500 to 1000 nM |
